Test results: patent US11518764B2, “Substituted heteroaryls as inhibitors of the BCL6 BTB domain protein-protein interaction” (Ontario Institute for Cancer Research (OICR), priority 2018, dated 2022)
Where two headings read alike, the source gives them in different places.

What was measured:
BCL6 BTB domain = BCL6 BTB domain (Homo sapiens (Human), UniProt P41182); test: Surface plasmon resonance (SPR) assay; type: binding; conditions: BCL6 BTB domain captured on SA chip, single cycle kinetics
[1] = system: BCL6 reporter construct (3xBCL6-TK-Luc) in SuDHL4 cells; test: Cell-based luciferase assay
Experimental: Cell-Based Luciferase Assay
A BCL6 reporter construct containing three copies of the consensus BCL6 binding site, the TK promoter, and the firefly luciferase gene was stably expressed in SuDHL4 cells after lentivirus infection and selection with Blasticidin. SuDHL4-3×BCL6-TK-Luc cells were seeded into a Viewplate 384-well assay dish at 15,000 cells/well in 25 ul medium (Alpha-MEM high glucose containing 10% FBS, 25 mM HEPES, […] GlutaMAX, 100 ug/ml Normocin, and […] Gentamycin, Invitrogen). A HP D300 digital dispenser was used to dose cells with DMSO or test compounds across a 10-point range of concentrations (high dose of 10 uM), and cultures were grown in a humidified 5% CO2 incubator at 37° C. After two days, plates were removed from the incubator and equilibrated to room temperature. An equal volume of neolite reporter gene assay reagent was added to each well, and samples were processed according to manufacturer's instructions (Perkin Elmer). Luminescent signal was measured using an Envision plate reader equipped with a US-Luminescence detector.

Karpas422 cells = test: Tumor cell growth inhibition assay; type: cell-based
Experimental: Tumor Cell Growth inhibition Assay
Karpas422 cells were seeded into a 96-well plate at 2,000 cells/well in 150 ul medium (Alpha-MEM containing 10% FBS, […] Normocin, and […] Gentamycin, Invitrogen). A HP D300 digital dispenser was used to dose cells with DMSO or test compounds across a 10-point range of concentrations (high dose of 5 uM), and cultures were grown in a humidified 5% CO2 incubator at 37° C. After six days, plates were removed from incubator and equilibrated to room temperature. An equal volume of ATPlite assay reagent was added to each well, and samples were processed according to manufacturer's instructions (Perkin Elmer). Luminescent signal was measured using an Envision plate reader equipped with a US-Luminescence detector.

[2] = Homo sapiens, SU-DHL-4, 48 h, read-out: Luciferase-Assay EC50, uM), SuDHL4-3xBCL6-TK-Luc cells, two days, high dose 10 uM
[3] = Homo sapiens, KARPAS-422, 144 h, read-out: Tumor Growth Inhibition in Karpas-422 (IC50, uM), Karpas422 cells, six days, ATPlite

Cn1cnc2c(c(-c3cc(Cl)c(O)c(C(N)=O)c3)cn2CC(=O)Nc2cc(N3CCC4(CCOCC4)CC3)ncc2Cl)c1=O [Compound I-77]
Kd (BCL6 BTB domain): 27 nM | EC50 [1, 2]: 0.279 µM | IC50 (Karpas422 cells; [3]): 0.115 µM

C[C@H]1COCCN1c1cc(NC(=O)Cn2cc(-c3cc(Cl)c(O)c(C(N)=O)c3)c3c(=O)n(CC#Cc4cnn(C)c4)cnc32)c(Cl)cn1 [Compound I-82]
Kd (BCL6 BTB domain): 6 nM | EC50 [1, 2]: 0.133 µM | IC50 (Karpas422 cells; [3]): 0.034 µM

CC1OCCN(c2cc(NC(=O)Cn3cc(-c4cc(Cl)c(O)c(C(N)=O)c4)c4c(=O)n(C)cnc43)c(Cl)cn2)C1C (stereo not drawn) [Compound I-83]
Kd (BCL6 BTB domain): 16 nM | EC50 [1, 2]: 0.148 µM | IC50 (Karpas422 cells; [3]): 0.119 µM

Cc1nc2c(c(-c3cc(Cl)c(O)c(C(N)=O)c3)cn2CC(=O)Nc2cc(N3C[C@@H](C)O[C@@H](C)C3)ncc2Cl)c(=O)[nH]1 [Compound I-85]
Kd (BCL6 BTB domain): 11 nM | EC50 [1, 2]: 0.076 µM | IC50 (Karpas422 cells; [3]): 0.064 µM

Cc1nc2c(s1)CN(c1cc(NC(=O)Cn3cc(-c4cc(Cl)c(O)c(C(N)=O)c4)c4c(=O)n(C)cnc43)c(Cl)cn1)C2 [Compound I-108]
Kd (BCL6 BTB domain): 30 nM | EC50 [1, 2]: 0.203 µM | IC50 (Karpas422 cells; [3]): 0.408 µM

Cc1c(O)c(C(N)=O)cc(-c2cn(CC(=O)Nc3cc(N4CCOCC4)ncc3Cl)c3ncn(C)c(=O)c23)c1F [Compound I-118]
Kd (BCL6 BTB domain): 2000 nM | EC50 [1, 2]: > 10 µM | IC50 (Karpas422 cells; [3]): 2.45 µM

Cc1c(O)c(C(N)=O)cc(-c2cn(CC(=O)Nc3cc(N4C[C@@H](C)O[C@@H](C)C4)ncc3Cl)c3ncn(C)c(=O)c23)c1F [Compound I-119]
Kd (BCL6 BTB domain): 4000 nM | EC50 [1, 2]: > 10 µM | IC50 (Karpas422 cells; [3]): > 10 µM

COc1cc(-c2cn(CC(=O)Nc3cc(N4CCOC[C@@H]4C)ncc3Cl)c3nc(C)n(C)c(=O)c23)cc(C(N)=O)c1O [Compound I-122]
Kd (BCL6 BTB domain): 6 nM | EC50 [1, 2]: 0.119 µM | IC50 (Karpas422 cells; [3]): 0.078 µM

COc1cc(-c2cn(CC(=O)Nc3cc(N4CCOCC4)ncc3Cl)c3nc(C)n(C)c(=O)c23)cc(C(N)=O)c1O [Compound I-123]
Kd (BCL6 BTB domain): 7 nM | EC50 [1, 2]: 0.095 µM | IC50 (Karpas422 cells; [3]): 0.216 µM

Cn1c(NCC2CC2)nc2c(c(-c3cc(Cl)c(O)c(C(N)=O)c3)cn2CC(=O)Nc2cc(N3CCOCC3)ncc2Cl)c1=O [Compound I-124]
Kd (BCL6 BTB domain): 86 nM | EC50 [1, 2]: 0.371 µM | IC50 (Karpas422 cells; [3]): 0.434 µM

Cn1cnc2c(c(-c3cc(Cl)c(O)c(C(N)=O)c3)cn2CC(=O)Nc2cc(N3C4CCC3CC4)ncc2Cl)c1=O [Compound I-125]
Kd (BCL6 BTB domain): 30 nM | EC50 [1, 2]: 3.76 µM | IC50 (Karpas422 cells; [3]): 0.407 µM

Cn1cnc2c(c(-c3cc(Cl)c(O)c(C(N)=O)c3)cn2CC(=O)Nc2cc(N3CC4CCC3C4)ncc2Cl)c1=O (stereo not drawn) [Compound I-126]
Kd (BCL6 BTB domain): 39 nM | EC50 [1, 2]: 2.85 µM | IC50 (Karpas422 cells; [3]): 0.268 µM

Cn1c(CCc2ccc(F)cc2)nc2c(c(-c3cc(Cl)c(O)c(C(N)=O)c3)cn2CC(=O)Nc2cc(N3CCOCC3)ncc2Cl)c1=O [Compound I-127]
Kd (BCL6 BTB domain): 201 nM | EC50 [1, 2]: 0.756 µM | IC50 (Karpas422 cells; [3]): 0.276 µM

Cc1nc2c(c(-c3cc(Cl)c(O)c(C(N)=O)c3)cn2CC(=O)Nc2cc(N3CCN(C)C[C@@H]3C)ncc2Cl)c(=O)[nH]1 [Compound I-128]
Kd (BCL6 BTB domain): 12 nM | EC50 [1, 2]: 0.173 µM | IC50 (Karpas422 cells; [3]): 0.074 µM

CN(C)c1cc(NC(=O)Cn2cc(-c3cc(Cl)c(O)c(C(N)=O)c3)c3c(=O)n(C)c(NCc4ccc(F)cc4)nc32)c(Cl)cn1 [Compound I-129]
Kd (BCL6 BTB domain): 44 nM | EC50 [1, 2]: 2.62 µM | IC50 (Karpas422 cells; [3]): 0.866 µM

CN(C)c1cc(NC(=O)Cn2cc(-c3cc(Cl)c(O)c(C(N)=O)c3)c3c(=O)n(C)c(NCC4CC4)nc32)c(Cl)cn1 [Compound I-130]
Kd (BCL6 BTB domain): 80 nM | EC50 [1, 2]: 1.03 µM | IC50 (Karpas422 cells; [3]): 0.775 µM

Cn1cnc2c(c(-c3cc(C(N)=O)c(O)cn3)cn2CC(=O)Nc2cc(N3CCOCC3)ncc2Cl)c1=O [Compound I-131, 2-(7-(2-((5-chloro-2-morpholinopyridin-4-yl)amino)-2-oxoethyl)-3-methyl-4-oxo-4,7-dihydro-3H-pyrrolo[2,3-d]pyrimidin-5-yl)-5-hydroxyisonicotinamide]
Kd (BCL6 BTB domain): 8000 nM | EC50 ([1]; SuDHL4-3xBCL6-TK-Luc cells, two days, high dose 10 uM, read-out: Luciferase-Assay EC50): > 10 µM | IC50 (Karpas422 cells; Karpas422 cells, six days, ATPlite, read-out: Tumor Growth Inhibition in Karpas-422 (IC50)): > 10 µM

CN1CCOC2(CCN(c3cc(NC(=O)Cn4cc(-c5cc(Cl)c(O)c(C(N)=O)c5)c5c(=O)n(C)cnc54)c(Cl)cn3)C2)C1 (stereo not drawn) [Compound I-132]
Kd (BCL6 BTB domain): 10 nM | EC50 [1, 2]: 0.192 µM | IC50 (Karpas422 cells; [3]): 0.067 µM
